Measurements: US6011174A, “Cyclic amic acid derivatives” (Banyu Pharmaceutical Co., Ltd., priority 1996, dated 2000)

Key:
[1] = test system: farnesyl-modification of Ras protein in NIH3T3 cells transformed by activated ras gene; assay: Inhibitory activities against farnesyl-modification of Ras protein in NIH3T3 cells transformed by activated ras gene; type: cell-based; settings: Mus musculus, 24 hours, read-out: 50% inhibitory concentrations against farnesyl-modification of Ras protein, IC50
Experimental: Using the compounds of the present invention, inhibitory activities against farnesyl-modification of Ras protein in NIH3T3 cells transformed by activated ras gene, were measured.
The NIH3T3 cells transformed by activated ras gene, were seeded on a culture plate and cultured for 3 days. Then, a compound of the preset invention in a predetermined concentration was added to the culture. In accordance with the method disclosed in J. Biol. Chem., vol. […] The cell extract was subjected to SDS polyacrylamide gel electrophoresis to separate farnesyl-modified Ras protein and non-farnesyl-modified Ras protein. The protein on the gel was transferred onto a nitrocellulose membrane, and an anti-Ras protein antibody was reacted as a probe (primary antibody reaction). An anti-primary antibody, a peroxidase inclusion (secondary antibody), was reacted, and then Ras protein was detected by a chemical fluorescence enhancing kit. The proportion of non-farnesyl-modified Ras protein was quantified by a densitometer and taken as the inhibitory activity.

[2] = biological target: T1, protein-farnesyl transferase (PFT) (Rattus norvegicus, UniProt Q02293+Q04631); assay: Inhibitory activities against protein-farnesyl transferase (PFT); type: biochemical; settings: PFT from rat brain; prenyl acceptor H-ras protein or biotin-added Lys-Thr-Ser-Cys-Val-Ile-Met; 37° C., 20 minutes; read-out: 50% inhibitory concentrations against PFT activities, IC50
T1 construct: soluble fraction of rat's brain; from tissue; host or cells: rat brain, soluble fraction, 30%-50% ammonium sulfate cut, Q-Sepharose fraction

[3] = test system: NIH3T3 Cells Transformed by Activated Ras Gene (NIH/ras); assay: Antitumor effect against NIH/ras cells in nude mice, intraperitoneal (tumor weight); type: in vivo, nude mouse; settings: for Growth inhibition (tumor weight): once a day days 1-6, day 7; for Weight of tumor, Average ± standard deviation: once a day days 1-6, weighed day 7
Text: Pharmacological Test Example 3 (Therapeutic Effects to NIH3T3 Cells Transformed by Activated Ras Gene (NIH/ras))
(§1) ^1) Tumor inoculation: 10^6 cells were inoculated subcutaneously
(§2) to a female nude mouse.
^2) Dose: Each dose was intraperitonealy administered once a day from
the first day to the sixth day after the inoculation of the cells,.
^3) Weight of tumor: On the seventh day after inoculation of the
cells, the tumors were weighed.
^4) Growth inhibition: (1(average weight of tumor of the treated
group/average weight of tumor of the control group)) × 100
* and **: Statistical analyses by utest are 5% and 1%, respectively.

[4] = test system: NIH3T3 Cells Transformed by Activated Ras Gene (NIH/ras); assay: Antitumor effect against NIH/ras cells in nude mice, subcutaneous (tumor volume); type: in vivo, nude mouse; settings: for Growth inhibition (tumor volume): once a day days 1-10, day 8; for Volume of tumor, Average ± standard deviation: once a day days 1-10, measured day 8, ** 1% (u test)
Experimental: as §1, §2
^2 Dose: Each dose was subcutaneously administered once a day from th
first day to the tenth day after the inoculation of the cells.
^3) Volume of tumor: On the eighth day after inoculation of the cells
volume of the tumors were measured.
^4) Growth inhibition: (1(average volume of tumor of the treated
group/average volume of tumor of the control group)) × 100

[5] = 10 mg/kg/injection subcutaneous
[6] = 20 mg/kg/injection subcutaneous
[7] = 40 mg/kg/injection subcutaneous

| Compound | IC50 [2] [nM] | IC50 [1] [nM] | further results |
| --- | --- | --- | --- |
| C[C@H]([C@H](CCc1ccccc1)c1ccc(Oc2ccccc2)cc1)N(CC(=O)O)C(=O)[C@@H]1OC(C(=O)O)(C(=O)O)O[C@@H]1C(=O)O (relative stereo) [Example 23 (4R*, 5S*)-isomer, (4R*,5S*)-4-[N-(carboxymethyl)-N-{(1R,2R)-1-methyl-2-(4-phenoxyphenyl)-4-phenylbutyl}carbamoyl]-1,3-dioxolane-2,2,5-tricarboxylic acid] | 0.085 | 2100 |  |
| C[C@H]([C@H](CCc1ccccc1)c1ccc(Oc2ccccc2)cc1)N(CC(=O)O)C(=O)[C@H]1OC(C(=O)O)(C(=O)O)O[C@H]1C(=O)O (relative stereo) [Example 23 (4S*, 5R*)-isomer, (4S*,5R*)-4-[N-(carboxymethyl)-N-{(1R,2R)-1-methyl-2-(4-phenoxyphenyl)-4-phenylbutyl}carbamoyl]-1,3-dioxolane-2,2,5-tricarboxylic acid] | 0.075 | 2000 |  |
| C[C@H]([C@H](CCc1ccccc1)c1ccc(Oc2ccccc2)cc1)N(CC(=O)O)C(=O)[C@@H]1OC(C(=O)O)(C(=O)O)O[C@H]1C(=O)O [Example 21, (4R,5R)-4-[N-(carboxymethyl)-N-{(1R,2R)-1-methyl-2-(4-phenoxyphenyl)-4-phenylbutyl}carbamoyl]-1,3-dioxolane-2,2,5-tricarboxylic acid] | 0.098 | 2100 |  |
| C[C@H]([C@H](CCc1ccccc1)c1ccc(Oc2ccccc2)cc1)N(CC(=O)O)C(=O)[C@H]1OC(C(=O)O)(C(=O)O)O[C@@H]1C(=O)O [Example 22, (4S,5S)-4-[N-(carboxymethyl)-N-{(1R,2R)-1-methyl-2-(4-phenoxyphenyl)-4-phenylbutyl}carbamoyl]-1,3-dioxolane-2,2,5-tricarboxylic acid] | 0.095 | 1900 | Growth inhibition (tumor volume) [4, 5]: 75%; Volume of tumor, Average ± standard deviation [4, 5]: 0.164 ± 0.073 cm^3; Growth inhibition (tumor volume) [4, 6]: 92%; Volume of tumor, Average ± standard deviation [4, 6]: 0.052 ± 0.030 cm^3; Growth inhibition (tumor volume) [4, 7]: 99%; Volume of tumor, Average ± standard deviation [4, 7]: 0.010 ± 0.009 cm^3 |

Continued, in another order:

| IC50 [2] [nM] | Compound | IC50 [1] [nM] | further results |
| --- | --- | --- | --- |
| 0.22 | COc1cc(C(CCc2ccccc2)C(C)N(CC(=O)O)C(=O)[C@@H]2COC(C(=O)O)(C(=O)O)O2)ccc1Oc1ccccc1 (single isomer, unassigned) [Example 31] | 550 |  |
| 0.2 | CC(C(CCc1ccccc1)c1ccc(Oc2ccccc2)c(O)c1)N(CC(=O)O)C(=O)[C@@H]1COC(C(=O)O)(C(=O)O)O1 (single isomer, unassigned) [Example 32] | 590 |  |
| 0.16 | C[C@H]([C@H](CCc1ccccc1)c1ccc(Oc2ccccc2)cc1)N(CC(=O)O)C(=O)[C@@H]1COC(C(=O)O)(C(=O)O)O1 [Example 9, (4S)-4-[N-(carboxymethyl)-N-{(1R,2R)-1-methyl-2-(4-phenoxyphenyl)-4-phenylbutyl}carbamoyl]-1,3-dioxolane-2,2-dicarboxylic acid] | 240 | Growth inhibition (tumor weight) ([3]; 20 mg/kg/injection intraperitoneal): 67%; Weight of tumor, Average ± standard deviation ([3]; 20 mg/kg/injection intraperitoneal, * 5% (u test)): 0.024 ± 0.018 g; Growth inhibition (tumor weight) ([3]; 40 mg/kg/injection intraperitoneal): 80%; Weight of tumor, Average ± standard deviation ([3]; 40 mg/kg/injection intraperitoneal, ** 1% (u test)): 0.015 ± 0.013 g; Growth inhibition (tumor weight) ([3]; 80 mg/kg/injection intraperitoneal): 90%; Weight of tumor, Average ± standard deviation ([3]; 80 mg/kg/injection intraperitoneal, ** 1% (u test)): 0.008 ± 0.006 g; Growth inhibition (tumor weight) ([3]; 160 mg/kg/injection intraperitoneal): 98%; Weight of tumor, Average ± standard deviation ([3]; 160 mg/kg/injection intraperitoneal, ** 1% (u test)): 0.002 ± 0.001 g |
